According to patent US10738028B2, “Spiro three-membered ring, spiro five-membered ring peptide deformylase inhibitor and use thereof in antibacteria and anti-tumor” (priority 2016, dated 2020):
In brackets after ≈: the same amount, converted by molar mass.

Legend:
Type in all cases: cell-based
[1] = tested on: Enterococcus faecalis (EFA); assay: MIC, two-fold agar dilution (CLSI), clinical isolates
From the text: (§1) 1. The invention adopts the two-fold agar dilution method recommended by the operating procedure of antimicrobial susceptibility testing set by American Clinical and Laboratory Standards Institute (CLSI) to determine the Minimum Inhibitory Concentration (MIC) of the test samples against the tested strains.

[2] = tested on: Enterococcus faecium (EFM); assay: as above
From the text: as §1

[3] = tested on: Escherichia coli (including ESBLs, non-ESBLs); assay: as above
From the text: as §1

[4] = tested on: Moraxella catarrhalis (BCA); assay: as above
From the text: as §1

[5] = tested on: Streptococcus pneoumoniae (SPN); assay: as above
From the text: as §1

[6] = tested on: methicillin-resistant Staphylococcus aureus (MRSA); assay: as above
From the text: as §1

[7] = tested on: methicillin-resistant Staphylococcus epidermidis (MRSE); assay: as above
From the text: as §1

[8] = tested on: methicillin-sensitive Staphylococcus aureus (MSSA); assay: as above
From the text: as §1

[9] = tested on: methicillin-sensitive Staphylococcus epidermidis (MSSE); assay: as above
From the text: as §1

[10] = tested on: HCT-116 colorectal cancer cell line; assay: CCK-8 proliferation inhibition; conditions: Homo sapiens, HCT-116, 72 h, concentration of 30 μM; 72 hours; CCK-8; read-out: HCT116 inhibition rate/%
Method: (1) HCT-116 colorectal cancer cell line, A549 lung cancer cell line, MGC-803 gastric cancer cell line, BEL-7402 liver cancer cell line, Jurkat T cell leukemia cell line, HL60 acute myeloid leukemia cell line, Hela cervical cancer cell line, MCF-7 breast cancer cell line, PC3 prostate cancer cell line and SAOS-2 osteosarcoma cell line were made into single cell suspension, 180 μL of which was inoculated into 96-well culture plate, which was cultured overnight in CO2 incubator (37° C., 5% CO2, 95% air).
(2) Each of the spiro three-membered ring, spiro five membered ring peptide deformylase inhibitors was dissolved in DMSO, and was further formulated into drug solution with required different final concentration using corresponding cell culture medium. The drug solutions were added to the above cells respectively (20 μL/well), with the control group added with 1‰ DMSO, and cultured in a CO2 incubator for 72 hours.
(3) After incubation for 72 hours, the culture solution was decanted, and 100 μL of 1:10 diluted CCK-8 solution was added.
Wherein, in step (1), the concentration of the single cell suspension was 2000 cells/well.
Wherein, in step (2), HCT-116 cells were cultured in McCoy's 5A medium (containing 10% newborn bovine serum, 1% double antibody); A549 and PC3 cells were cultured in F12 medium (containing 10% newborn bovine serum, 1% double antibody); MGC-803, BEL-7402, SAOS-2, Jurkat and HL60 cells were cultured in 1640 medium (containing 10% newborn bovine serum, 1% double antibody); and MCF-7 and Hela cells were cultured in DMEM high glucose medium (containing 10% newborn bovine serum, 1% double antibody).

CCCC[C@H](CN(O)C=O)C(=O)N1CC2(CC2)C[C@H]1C(=O)Nc1ccncn1 [Example 16, (S)-5-((R)-2-((N-hydroxyformamido)methyl)hexanoyl)-N-(pyrimidin-4-yl)-5-spiro[2.4]heptane-6-carboxamide]
MIC (anti-bacterial activity) ([1]; strain EFA 15-1): 4 µg/mL (≈ 10.3 µM)
MIC (anti-bacterial activity) ([1]; strain EFA 15-2): 4 µg/mL (≈ 10.3 µM)
MIC (anti-bacterial activity) ([1]; strain EFA 15-3): 0.25 µg/mL (≈ 0.642 µM)
MIC (anti-bacterial activity) ([1]; strain EFA 15-4): 4 µg/mL (≈ 10.3 µM)
MIC (anti-bacterial activity) ([1]; strain EFA 15-5): 4 µg/mL (≈ 10.3 µM)
MIC (anti-bacterial activity) ([1]; strain EFA 15-6): 4 µg/mL (≈ 10.3 µM)
MIC (anti-bacterial activity) ([1]; strain EFA 15-9): 4 µg/mL (≈ 10.3 µM)
MIC (anti-bacterial activity) ([2]; strain EFM 15-1): 0.5 µg/mL (≈ 1.28 µM)
MIC (anti-bacterial activity) ([2]; strain EFM 15-2): 1 µg/mL (≈ 2.57 µM)
MIC (anti-bacterial activity) ([2]; strain EFM 15-3): 0.25 µg/mL (≈ 0.642 µM)
MIC (anti-bacterial activity) ([2]; strain EFM 15-4): 2 µg/mL (≈ 5.14 µM)
MIC (anti-bacterial activity) ([2]; strain EFM 15-5): 0.25 µg/mL (≈ 0.642 µM)
MIC (anti-bacterial activity) ([2]; strain EFM 15-6): 2 µg/mL (≈ 5.14 µM)
MIC (anti-bacterial activity) ([3]; strain ECO+ 15-1): 32 µg/mL (≈ 82.2 µM)
MIC (anti-bacterial activity) ([3]; strain ECO+ 15-2): > 32 µg/mL
MIC (anti-bacterial activity) ([3]; strain ECO+ 15-3): > 32 µg/mL
MIC (anti-bacterial activity) ([3]; strain ECO+ 15-4): > 32 µg/mL
MIC (anti-bacterial activity) ([3]; strain ECO− 15-1): 32 µg/mL (≈ 82.2 µM)
MIC (anti-bacterial activity) ([3]; strain ECO− 15-2): > 32 µg/mL
MIC (anti-bacterial activity) ([3]; strain ECO− 15-3): > 32 µg/mL
MIC (anti-bacterial activity) ([3]; strain ECO− 15-4): > 32 µg/mL
MIC (anti-bacterial activity) ([4]; strain BCA 14-1): 0.5 µg/mL (≈ 1.28 µM)
MIC (anti-bacterial activity) ([4]; strain BCA 14-4): 1 µg/mL (≈ 2.57 µM)
MIC (anti-bacterial activity) ([4]; strain BCA 14-5): 0.25 µg/mL (≈ 0.642 µM)
MIC (anti-bacterial activity) ([4]; strain BCA 14-6): 1 µg/mL (≈ 2.57 µM)
MIC (anti-bacterial activity) ([4]; strain BCA 14-7): 0.25 µg/mL (≈ 0.642 µM)
MIC (anti-bacterial activity) ([4]; strain BCA 14-8): 0.25 µg/mL (≈ 0.642 µM)
MIC (anti-bacterial activity) ([4]; strain BCA 14-10): 0.25 µg/mL (≈ 0.642 µM)
MIC (anti-bacterial activity) ([5]; strain SPN 16-2): 4 µg/mL (≈ 10.3 µM)
MIC (anti-bacterial activity) ([5]; strain SPN 16-4): 0.25 µg/mL (≈ 0.642 µM)
MIC (anti-bacterial activity) ([6]; strain MRSA 15-1): 0.06 µg/mL (≈ 0.154 µM)
MIC (anti-bacterial activity) ([6]; strain MRSA 15-2): 0.25 µg/mL (≈ 0.642 µM)
MIC (anti-bacterial activity) ([6]; strain MRSA 15-3): 0.25 µg/mL (≈ 0.642 µM)
MIC (anti-bacterial activity) ([6]; strain MRSA 15-4): 1 µg/mL (≈ 2.57 µM)
MIC (anti-bacterial activity) ([7]; strain MRSE 15-1): 0.06 µg/mL (≈ 0.154 µM)
MIC (anti-bacterial activity) ([7]; strain MRSE 15-2): 1 µg/mL (≈ 2.57 µM)
MIC (anti-bacterial activity) ([7]; strain MRSE 15-3): 0.25 µg/mL (≈ 0.642 µM)
MIC (anti-bacterial activity) ([7]; strain MRSE 15-7): 0.25 µg/mL (≈ 0.642 µM)
MIC (anti-bacterial activity) ([8]; strain MSSA 15-3): 1 µg/mL (≈ 2.57 µM)
MIC (anti-bacterial activity) ([8]; strain MSSA 15-4): 0.25 µg/mL (≈ 0.642 µM)
MIC (anti-bacterial activity) ([8]; strain MSSA 15-5): 0.125 µg/mL (≈ 0.321 µM)
MIC (anti-bacterial activity) ([8]; strain MSSA 15-6): 1 µg/mL (≈ 2.57 µM)
MIC (anti-bacterial activity) ([9]; strain MSSE 15-3): 1 µg/mL (≈ 2.57 µM)
MIC (anti-bacterial activity) ([9]; strain MSSE 15-4): 0.06 µg/mL (≈ 0.154 µM)
MIC (anti-bacterial activity) ([9]; strain MSSE 15-5): 0.06 µg/mL (≈ 0.154 µM)
MIC (anti-bacterial activity) ([9]; strain MSSE 15-6): 0.06 µg/mL (≈ 0.154 µM)
inhibition at 30 µM [10]: 24%

CCCC[C@H](CN(O)C=O)C(=O)N1CC2(CC2)C[C@H]1C(=O)Nc1ccno1 [Example 17]
MIC (anti-bacterial activity) ([1]; strain EFA 15-1): 8 µg/mL (≈ 21.1 µM)
MIC (anti-bacterial activity) ([1]; strain EFA 15-2): 8 µg/mL (≈ 21.1 µM)
MIC (anti-bacterial activity) ([1]; strain EFA 15-3): 2 µg/mL (≈ 5.29 µM)
MIC (anti-bacterial activity) ([1]; strain EFA 15-4): 8 µg/mL (≈ 21.1 µM)
MIC (anti-bacterial activity) ([1]; strain EFA 15-5): 8 µg/mL (≈ 21.1 µM)
MIC (anti-bacterial activity) ([1]; strain EFA 15-6): 8 µg/mL (≈ 21.1 µM)
MIC (anti-bacterial activity) ([1]; strain EFA 15-9): 8 µg/mL (≈ 21.1 µM)
MIC (anti-bacterial activity) ([2]; strain EFM 15-1): 1 µg/mL (≈ 2.64 µM)
MIC (anti-bacterial activity) ([2]; strain EFM 15-2): 2 µg/mL (≈ 5.29 µM)
MIC (anti-bacterial activity) ([2]; strain EFM 15-3): 0.5 µg/mL (≈ 1.32 µM)
MIC (anti-bacterial activity) ([2]; strain EFM 15-4): 2 µg/mL (≈ 5.29 µM)
MIC (anti-bacterial activity) ([2]; strain EFM 15-5): 1 µg/mL (≈ 2.64 µM)
MIC (anti-bacterial activity) ([2]; strain EFM 15-6): 2 µg/mL (≈ 5.29 µM)
MIC (anti-bacterial activity) ([3]; strain ECO+ 15-1): 32 µg/mL (≈ 84.6 µM)
MIC (anti-bacterial activity) ([3]; strain ECO+ 15-2): 32 µg/mL (≈ 84.6 µM)
MIC (anti-bacterial activity) ([3]; strain ECO+ 15-3): > 32 µg/mL
MIC (anti-bacterial activity) ([3]; strain ECO+ 15-4): > 32 µg/mL
MIC (anti-bacterial activity) ([3]; strain ECO− 15-1): 16 µg/mL (≈ 42.3 µM)
MIC (anti-bacterial activity) ([3]; strain ECO− 15-2): 32 µg/mL (≈ 84.6 µM)
MIC (anti-bacterial activity) ([3]; strain ECO− 15-3): > 32 µg/mL
MIC (anti-bacterial activity) ([3]; strain ECO− 15-4): 32 µg/mL (≈ 84.6 µM)
MIC (anti-bacterial activity) ([4]; strain BCA 14-1): 4 µg/mL (≈ 10.6 µM)
MIC (anti-bacterial activity) ([4]; strain BCA 14-4): 2 µg/mL (≈ 5.29 µM)
MIC (anti-bacterial activity) ([4]; strain BCA 14-5): 1 µg/mL (≈ 2.64 µM)
MIC (anti-bacterial activity) ([4]; strain BCA 14-6): 2 µg/mL (≈ 5.29 µM)
MIC (anti-bacterial activity) ([4]; strain BCA 14-7): 1 µg/mL (≈ 2.64 µM)
MIC (anti-bacterial activity) ([4]; strain BCA 14-8): 2 µg/mL (≈ 5.29 µM)
MIC (anti-bacterial activity) ([4]; strain BCA 14-10): 1 µg/mL (≈ 2.64 µM)
MIC (anti-bacterial activity) ([5]; strain SPN 16-2): 8 µg/mL (≈ 21.1 µM)
MIC (anti-bacterial activity) ([5]; strain SPN 16-4): 1 µg/mL (≈ 2.64 µM)
MIC (anti-bacterial activity) ([6]; strain MRSA 15-1): 1 µg/mL (≈ 2.64 µM)
MIC (anti-bacterial activity) ([6]; strain MRSA 15-2): 1 µg/mL (≈ 2.64 µM)
MIC (anti-bacterial activity) ([6]; strain MRSA 15-3): 1 µg/mL (≈ 2.64 µM)
MIC (anti-bacterial activity) ([6]; strain MRSA 15-4): 1 µg/mL (≈ 2.64 µM)
MIC (anti-bacterial activity) ([7]; strain MRSE 15-1): 0.25 µg/mL (≈ 0.661 µM)
MIC (anti-bacterial activity) ([7]; strain MRSE 15-2): 0.5 µg/mL (≈ 1.32 µM)
MIC (anti-bacterial activity) ([7]; strain MRSE 15-3): 0.5 µg/mL (≈ 1.32 µM)
MIC (anti-bacterial activity) ([7]; strain MRSE 15-7): 1 µg/mL (≈ 2.64 µM)
MIC (anti-bacterial activity) ([8]; strain MSSA 15-3): 1 µg/mL (≈ 2.64 µM)
MIC (anti-bacterial activity) ([8]; strain MSSA 15-4): 1 µg/mL (≈ 2.64 µM)
MIC (anti-bacterial activity) ([8]; strain MSSA 15-5): 0.25 µg/mL (≈ 0.661 µM)
MIC (anti-bacterial activity) ([8]; strain MSSA 15-6): 1 µg/mL (≈ 2.64 µM)
MIC (anti-bacterial activity) ([9]; strain MSSE 15-3): 1 µg/mL (≈ 2.64 µM)
MIC (anti-bacterial activity) ([9]; strain MSSE 15-4): 0.5 µg/mL (≈ 1.32 µM)
MIC (anti-bacterial activity) ([9]; strain MSSE 15-5): 0.5 µg/mL (≈ 1.32 µM)
MIC (anti-bacterial activity) ([9]; strain MSSE 15-6): 0.25 µg/mL (≈ 0.661 µM)
inhibition at 30 µM [10]: 13%
